Measured values: ChEMBL document CHEMBL3045614, “Antifeedant activity of vicolides from Pentanema indicum” (1999)

Columns and labels:
Format in all cases: functional
Olepa ricini [1] = test: Antifeedant activity against moulted fifth larval stage of Olepa ricini infested on castor leaves assessed as feeding deterrence index at 200 ppm by leaf disk assay relative to control
Olepa ricini [2] = test: Antifeedant activity against moulted fifth larval stage of Olepa ricini infested on castor leaves assessed as feeding deterrence index at 2000 ppm by leaf disk assay relative to control
Euproctis fraterna [3] = test: Antifeedant activity against moulted fifth larval stage of Euproctis fraterna infested castor leaves assessed as feeding deterrence index at 0.2 ppm by leaf disk assay relative to control
Euproctis fraterna [4] = test: Antifeedant activity against moulted fifth larval stage of Euproctis fraterna infested castor leaves assessed as feeding deterrence index at 2 ppm by leaf disk assay relative to control
Euproctis fraterna [5] = test: Antifeedant activity against moulted fifth larval stage of Euproctis fraterna infested castor leaves assessed as feeding deterrence index at 20 ppm by leaf disk assay relative to control
Euproctis fraterna [6] = test: Antifeedant activity against moulted fifth larval stage of Euproctis fraterna infested castor leaves assessed as feeding deterrence index at 200 ppm by leaf disk assay relative to control
Euproctis fraterna [7] = test: Antifeedant activity against moulted fifth larval stage of Euproctis fraterna infested castor leaves assessed as feeding deterrence index at 2000 ppm by leaf disk assay relative to control
Olepa ricini [8] = test: Antifeedant activity against moulted fifth larval stage of Olepa ricini infested on castor leaves assessed as feeding deterrence index at 0.2 ppm by leaf disk assay relative to control
Olepa ricini [9] = test: Antifeedant activity against moulted fifth larval stage of Olepa ricini infested on castor leaves assessed as feeding deterrence index at 2 ppm by leaf disk assay relative to control
Olepa ricini [10] = test: Antifeedant activity against moulted fifth larval stage of Olepa ricini infested on castor leaves assessed as feeding deterrence index at 20 ppm by leaf disk assay relative to control

Structure (SMILES) | FDI (Olepa ricini [1]) [%] | FDI (Olepa ricini [2]) [%] | FDI (Euproctis fraterna [3]) [%] | FDI (Euproctis fraterna [4]) [%] | FDI (Euproctis fraterna [5]) [%] | FDI (Euproctis fraterna [6]) [%] | FDI (Euproctis fraterna [7]) [%] | FDI (Olepa ricini [8]) [%] | FDI (Olepa ricini [9]) [%] | FDI (Olepa ricini [10]) [%]
C=C1C(=O)O[C@H]2[C@H]1[C@@H](OC(=O)[C@@H](C)CC)[C@H](OC(C)=O)[C@H](C)C[C@@H](O)[C@H]1O[C@@]1(C)[C@@H]2O [VICOLIDE C] | 30.59 | 38.26 | 13.98 | 18.6 | 22.37 | 26.76 | 26.56 | 4.44 | 9.61 | 17.74
C=C1C(=O)O[C@H]2[C@H]1[C@@H](O)[C@H](OC(=O)/C(C)=C\C)[C@H](C)[C@@H]1C(=O)C=C(C)[C@H]21 [VICOLIDE A] | 29.66 | 42.86 | 8.43 | 8.99 | 15.33 | 15.33 | 15.06 | 6.17 | 13.35 | 22.28
C=C1C(=O)O[C@@H]2C/C(C)=C\C(=O)C[C@@H](C)[C@@H](OC(=O)/C(C)=C\C)[C@H](O)[C@@H]12 [VICOLIDE B] | 40.93 | 48.68 | 12.17 | 13.98 | 20.28 | 22.54 | 57.03 | 12.83 | 21.06 | 24.36
C=C1C(=O)O[C@@H]2C/C(C)=C\C(=O)C[C@@H](C)[C@@H](OC(=O)[C@]3(C)O[C@@H]3C)[C@H](O)[C@@H]12 [VICOLIDE D] | 40.93 | 46.88 | 10.99 | 14.44 | 15.37 | 20.46 | 35.68 | 10.61 | 17.74 | 27.62
